One assay deals with HIF-1. Description: HIF-1-dependent luciferase reporter assay in U2OS-HRE-Luc cells in hypoxia. The assay is classed as cell-based, human. As to conditions: 16 h in hypoxia; for reduction in luminescence: 40 μM. The protocol: HIF Luciferase Reporter Assays
Assays were conducted in previously reported U2OS-HRE-Luciferase (U2OS-HRE-Luc) cells.2 Upon reaching 80-90% confluency, U2OS-HRE-Luc were plated (10 000 cells/well) in 96-well plates (Perkin-Elmer) and incubated in a cell incubator for 16 h. The cells were treated with cyclic peptide at […]
manufacturer’s protocol. […] The
Background: A reporter such as luciferase makes a cellular process visible.

In the next assay the test system is HIF-1α/HIF-1β PPI. The experiment in a line: SICLOPPS CX5 library screen in HIF-1 RTHS with biopanning and NGS. The class given is cell-based, E. coli. As to conditions: after 2 rounds of biopanning. The source says:
The HIF-1 RTHS links the PPI between HIF-1α-P22 and HIF-1β-434 fusion proteins to the life/death of the host E. coli via three reporter genes.[14] Interaction of HIF-1α and HIF-1β results in the formation of a chimeric P22/434 repressor that inhibits the transcription of the KanR and His3 reporter genes, which are required for cell survival in selection media (Figure S1). Disruption of the HIF-1α/HIF-1β PPI also disrupts the repressor complex, leading to transcription of the reporter genes and survival of colonies that contain cyclic peptide HIF-1 inhibitors. Thus, cells containing cyclic peptide inhibitors of the targeted PPI will survive and grow on selective media, whereas all others will not. The HIF-1 RTHS cells were transformed with the sequenced CX5 library and, after recovery, plated onto a selective medium. After incubation for 48 h at 37 °C, selection plates were scraped to collect all colonies, and the SICLOPPS plasmids were isolated. The extein coding region of these plasmids was subsequently sequenced by NGS. We observed sequence enrichment after one round of biopanning, with the three sequences (CAAAAA, CRLYVL, and CVTYVL) making up 7.8% of the entire library with over 10 000 copies each per 1 M reads (Figure 2a). The prevalence of the control sequence was reduced by 44% from 80 000 to 45 000 copies per million reads, which further indicated enrichment of cyclic peptide inhibitors of the HIF-1α/HIF-1β PPI in the RTHS. The next 47 sequences were present with over 1000 copies after round 1 which made up a further 15% of the library (Figure 2a). HIF-1 RTHS cells were transformed with the SICLOPPS plasmid library isolated from round 1 of biopanning, for a second round of selection. After incubation, all colonies were scraped, and plasmids were isolated and sequenced by NGS as before. We observed further sequence enrichment after the second round of biopanning, evident by the shift of the library population from the mostly low-prevalence sequences in both the naïve library and after one round of biopanning to mostly highly prevalent cyclic peptide sequences after round 2 of biopanning (Figure 2b). With 159 000 copies per 1 M reads, the most prevalent sequence is CRTYIL, while the next 14 sequences were all present with more than 10 000 copies per 1 M. The top 15 sequences make up over 50% of the entire library. The CA5 internal standard dropped to 0.5%, providing further evidence of enrichment of active inhibitors during biopanning.
All reagents were purchased from Fisher Scientific or Sigma Aldrich UK unless specified otherwise.
Restriction enzymes and microbiology reagents were purchased from New England Biolabs Inc., FisherScientific (UK) or Promega (UK) and were used as directed by the manufacturer. Primers and oligonucleotides were synthesised by Integrated DNA Technologies (UK). DNA sequencing was carried out by Eurofins MWG Operon (Germany).
Construction of the RTHS and SICLOPPS library was conducted as previously described.2 […]
Electrocompetent RTHS-HIF 1 cells2 were transformed with 100 ng freshly prepared SICLOPPS CX5 library, prepared as previously detailed.3 The recovery mixture was plated on 6 square plates containing M9 minimal media supplemented with 50 µg/mL ampicillin, 25 µg/mL Spectinomycin, 50 µg/mL kanamycin, 35 µg/mL chloramphenicol, 100 µM IPTG, 6.5 µM L-arabinose and 7.5 mM 3-amino triazole and incubate at 37 °C for 48 h. To ensure sufficie transformation efficiency, 10 µL transformation mixture was subjected to 10-fold serial dilutions plated on LB-agar with 35 µg/m […]
Chloramphenicol. […] All cells were […]
then harvested by resuspending the colonies in a total of 50 mL LB medium and transferring to a centrifuge tube and centrifugation for 30 min at 4000 rpm and 4°C. The cell pellet was then subjected to maxi prep (GeneJET Plasmid Maxiprep kit Thermo Scientific) and the resulting plasmid library was used for the next round of biopanning and NGS. The second round of bio panning was […]

The target in the next assay is T1, PAS-B domain of HIF-1α (Homo sapiens, UniProt Q16665).
T1 construct: The HIF-1a PAS-B domain was expressed and purified as previously described; made in house
T1 sequence (Q16665 228-298 limits assumed): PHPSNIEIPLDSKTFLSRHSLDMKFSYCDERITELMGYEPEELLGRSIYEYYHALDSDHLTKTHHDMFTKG
Description: Microscale thermophoresis (MST) binding to HIF-1α PAS-B domain. As to conditions: MST, HIF-1α PAS-B, mean (n = 3) ± SEM; read-out: KD. On the procedure: We synthesized the top 20 cyclic peptides from the ranking approach. We also synthesized cyclo-CLLFVY as a control.[14] These compounds were assessed for binding to the PAS-B domain of HIF-1α by microscale thermophoresis (MST). […]

In general, IC50 refers to the midpoint of a concentration-inhibition curve. Broadly, the Kd is the concentration at which binding is half-saturated.

Peptide text beside a SMILES is read from it.

Compound `CC(C)C[C@@H]1NC(=O)[C@H](CS)NC(=O)[C@H](Cc2ccccc2)NC(=O)[C@H](CC(C)C)NC(=O)[C@H](CC(C)C)NC(=O)[C@H](CSSC[C@H](N)C(=O)NCC(=O)N[C@@H](CCCNC(=N)N)C(=O)N[C@@H](CCCCN)C(=O)N[C@@H](CCCCN)C(=O)N[C@@H](CCCNC(=N)N)C(=O)N[C@@H](CCCNC(=N)N)C(=O)N[C@@H](CCC(N)=O)C(=O)N[C@@H](CCCNC(=N)N)C(=O)N[C@@H](CCCNC(=N)N)C(=O)N[C@@H](CCCNC(=N)N)C(=O)N2CCC[C@H]2C(=O)N2CCC[C@H]2C(=O)N[C@@H](CCC(N)=O)C(=O)O)NC1=O` [Tat-cyclo-CLLFCL] registered a luciferase signal reduction in the assay with HIF-1 (20 μM) of 70%. For the same compound, the reduction in luminescence in the assay on HIF-1 is on record as 84%. Moreover, in the assay with HIF-1 (multiple doses, read-out: IC50 of reduction in the hypoxia-mediated luciferase signal), the concentration for half-maximal inhibition (IC50) worked out at 13 ± 4 µM.

Compound Tat-cyclo-CLLFVY [reference compound] gave a reduction in luminescence in the assay on HIF-1 of 28%.

Turning to `CC[C@H](C)[C@@H]1NC(=O)[C@H](Cc2ccccc2)NC(=O)[C@H]([C@@H](C)CC)NC(=O)[C@H](CCCNC(=N)N)NC(=O)[C@H](CS)NC(=O)[C@H](CCSC)NC1=O` [CRIFIM, cyclo-CRIFIM] (cyclo(CRIFIM)), in the assay with HIF-1α/HIF-1β PPI, the “Enrichment after pan 2 [%]” value worked out at 1.319%. Also, the dissociation constant (Kd) on PAS-B domain of HIF-1α came to 26 ± 1 µM.

These data come from article PMC11494503, “Next Generation SICLOPPS Screening for the Identification of Inhibitors of the HIF-1α/HIF-1β Protein–Protein Interaction” (ACS Chemical Biology, 2024).
